The text below walks through data of patent US11559518B2, “Endoplasmic reticulum stress regulator comprising benzothiazoimidazolyl compound” (ER Stress Research Institute, Inc., priority 2017, dated 2023).

The subject of data set [1] is endoplasmic reticulum stress response (EUA activity) in 293A transformed cells. Put plainly: Endoplasmic reticulum stress reporter (10×ERSE2-10×UPRE-5×AARE-EGFP) fluorescence under Tunicamycin. It is filed as cell-based. Conditions: for inhibition at 5 µM: 293A, read-out: Endoplasmic reticulum stress inhibition rate (Z)%; for Suppression of EUA activity (endoplasmic reticulum stress response activation) caused by Tunicamycin: FIG. 5.

The subject of data set [2] is 293A transformed cell line. Conditions: FIG. 8; for Cell proliferation on treatment with the stress inducer / cytotoxic compound alone: no test compound added.
Experimental: It is noted that in addition to Tm, camptothecin (CPT) was also used as a compound to confer cytotoxicity, and this was used as a positive control for cell death. Cell proliferation rate was determined by obtaining bright field images using a high content confocal imaging system (PerkinElmer, Operetta CLS) at intervals of 4 hours after starting the experiment, and calculating cell density from the bright field image using an image analysis software Harmony (PerkinElmer).
The test system of data set [3] is 293A transformed cell line. In words: Lactate dehydrogenase (LDH) release (cytotoxicity) of Tm-treated 293A transformed cell line. It is filed as cell-based. Particulars: 43 hours, FIG. 10. As for the experimental part:
(§1) Intracellular ATP level or activity of lactate dehydrogenase (LDH), which is released from cells that have been damaged in the cell membrane, were measured in order to confirm the effect of Compound No. 1 against cell growth or cytotoxicity. […] Each were measured using an ATP assay kit (Promega, Celltiter-glo) and LDH activity measurement kit (Dojindo, Cytotoxicity LDH Assay Kit-WST) using a multiplate reader, Cytation 3 (Bio-Tek) according to the protocols of the kits (number of tests n=4).

Data set [4] deals with 293A transformed cell line. Put plainly: Intracellular ATP level (viability) of Tm-treated 293A transformed cell line. Particulars: Tm treatment; 43 hours; FIG. 9. The data set is classed as cell-based. How it is done: as §1
[5] abbreviates: Compound concentration: 5 μM, Tm-induced, EGFP fluorescence.

On to `O=C([O-])CCCc1ccccc1.[Na+]` [4PBA, Sodium 4-phenylbutyrate, reference compound], for which the inhibition (usually the change of the read-out against control, counted positive when it falls) at 5 µM in data set [1] (setting [5]) is 0%. In data set [1] (concentration not given), the “Suppression of EUA activity (endoplasmic reticulum stress response activation) caused by Tunicamycin” value (“Suppression of EUA activity” for short) is “could not suppress”.

For `Clc1ccc(-c2cn3c(n2)sc2ccccc23)cc1` [compound 3], the inhibition at 5 µM in data set [1] (setting [5]) was 101%.

Turning to `COC(=O)c1ccc2c(c1)sc1nc(-c3ccccc3)cn12` [compound 2], the inhibition at 5 µM in data set [1] (setting [5]) is 100%.

With `CS(=O)(=O)c1ccc2c(c1)sc1nc(-c3ccccc3Cl)cn12` [compound 12], in data set [1] (setting [5]), the inhibition at 5 µM is 54%.

Take `CC[C@@]1(O)C(=O)OCc2c1cc1n(c2=O)Cc2cc3ccccc3nc2-1` [camptothecin]: in data set [2], the “Cell proliferation on treatment with the stress inducer / cytotoxic compound alone” value is given as “almost completely inhibited”.

As for `CCN(CC)CCCNC(=O)c1ccc2c(c1)sc1nc(-c3ccc(OC)cc3)cn12` [compound 6], the inhibition at 5 µM in data set [1] (setting [5]) was determined as 93%.

With `COc1cccc(-c2cn3c(n2)sc2cc(C(=O)NCCCN4CCOCC4)ccc23)c1` [compound 8], in data set [1] (setting [5]), the inhibition at 5 µM was 98%.

Take `C[C@H](CCC(=O)NCCS(=O)(=O)O)[C@H]1CC[C@H]2[C@@H]3[C@@H](O)C[C@@H]4C[C@H](O)CC[C@]4(C)[C@H]3CC[C@]12C` [TUDCA, Tauroursodeoxycholic Acid, reference compound]: in data set [1] (setting [5]), the inhibition at 5 µM was 0%. Also, the “Suppression of EUA activity” value in data set [1] (concentration not given) is “could not suppress”.

As to `CCc1ccc(-c2cn3c(n2)sc2cc(C(=O)OC)ccc23)cc1` [compound 4], the inhibition at 5 µM in data set [1] (setting [5]) amounted to 99%.

On to `CCN(CC)CCCNC(=O)c1ccc2c(c1)sc1nc(-c3ccccc3)cn12` [compound 9], for which the inhibition at 5 µM in data set [1] (setting [5]) turned out to be 61%.

Consider `Cc1ccc(-c2cn3c(n2)sc2cc(C(=O)NCCCN4CCOCC4)ccc23)cc1` [compound 11], for which the inhibition at 5 µM in data set [1] (setting [5]) was found to be 66%.

In the case of `Cc1ccc(-c2cn3c(n2)sc2cc(C(=O)NCCCN4CCCCC4C)ccc23)cc1` (centres unmarked) [compound 7], the inhibition at 5 µM in data set [1] (setting [5]) worked out at 95%.

Turning to Tunicamycin [Tm], the “Cell proliferation on treatment with the stress inducer / cytotoxic compound alone” value in data set [2] was “almost completely inhibited”.

As to `CCCC(=O)NCCc1csc(-c2ccc(Cl)cc2)n1` [Azoramide], the “Suppression of EUA activity” value in data set [1] (40 μM) is “had an inhibitory effect”. Further, the “Endoplasmic reticulum stress inhibition rate (Z)%” value in data set [1] (setting [5]) amounted to 0%. Moreover, the “LDH activity increased by Tm treatment, decreased to % of that of UT cells” value in data set [3] is “approximately 50%”. Moreover, the “Intracellular ATP level recovered, % of that of UT cells” value in data set [4] is listed as “approximately 75%”. Also, the “Cell proliferation recovered, % of that of UT cells” value in data set [2] (40 μM, 0.2 μg/mL Tm) is given as “approximately 58%”.

For the compound `O=C(NCCCN1CCCCC1)c1ccc2c(c1)sc1nc(-c3ccccc3)cn12` [compound 10], the inhibition at 5 µM in data set [1] (setting [5]) is 41%.

`Fc1ccccc1-c1cn2c(n1)sc1ccccc12` [compound 5]: the inhibition at 5 µM in data set [1] (setting [5]) came to 79%.

Consider `CCOC(=O)C1CCN(C(=O)c2ccc3c(c2)sc2nc(-c4ccc(OC)cc4)cn23)CC1` [compound 13], for which the inhibition at 5 µM in data set [1] (setting [5]) worked out at 60%.
